The Km is the concentration of substrate that gives half-maximal velocity. For orientation: Vmax means the top rate of the reaction or transport when substrate is in excess.

Data set [1] relates to NET. Also on record: method as in PMID 31265842. The following applies: cited from earlier work.
In another data set the target is SERT (Homo sapiens, UniProt P31645). The data set is described as follows: Uptake into HEK293 cells overexpressing SERT (uptake ratio and concentration-dependent uptake). To be noted: for Clint ± SEM: SERT, intrinsic clearance, quotient of vmax and Km.
Chain of SERT (P31645 whole entry): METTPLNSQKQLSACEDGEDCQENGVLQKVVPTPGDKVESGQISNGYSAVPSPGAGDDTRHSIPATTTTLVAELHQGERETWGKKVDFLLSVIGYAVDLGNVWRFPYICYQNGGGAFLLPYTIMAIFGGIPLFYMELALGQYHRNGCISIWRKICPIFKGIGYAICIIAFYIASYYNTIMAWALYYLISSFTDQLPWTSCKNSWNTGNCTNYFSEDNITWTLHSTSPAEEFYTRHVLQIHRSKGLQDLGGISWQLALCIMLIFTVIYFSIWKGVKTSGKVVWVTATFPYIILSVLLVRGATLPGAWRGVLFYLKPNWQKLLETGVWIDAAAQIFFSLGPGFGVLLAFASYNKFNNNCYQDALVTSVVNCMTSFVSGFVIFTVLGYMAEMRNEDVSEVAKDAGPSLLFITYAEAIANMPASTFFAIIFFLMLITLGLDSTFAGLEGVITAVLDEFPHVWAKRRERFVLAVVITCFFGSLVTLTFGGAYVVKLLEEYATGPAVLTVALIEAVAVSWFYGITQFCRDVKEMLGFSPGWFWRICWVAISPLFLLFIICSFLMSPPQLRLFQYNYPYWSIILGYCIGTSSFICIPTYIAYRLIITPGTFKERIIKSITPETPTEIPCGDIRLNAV
Data set [2] addresses DAT (Homo sapiens, UniProt Q01959). The data set is described as follows: Uptake into HEK293 cells overexpressing DAT (uptake ratio and concentration-dependent uptake). To be noted: for Clint ± SEM: intrinsic clearance, quotient of vmax and Km.
Data set [3] relates to DAT. Also on record: method as in PMID 31265842. To be noted: cited from earlier work.
Data set [4] deals with NET (Homo sapiens, UniProt P23975). Kind of data set: Uptake into HEK293 cells overexpressing NET (uptake ratio and concentration-dependent uptake). The following applies: intrinsic clearance, quotient of vmax and Km.
Chain of NET (Homo sapiens, UniProt P23975) (P23975 whole entry): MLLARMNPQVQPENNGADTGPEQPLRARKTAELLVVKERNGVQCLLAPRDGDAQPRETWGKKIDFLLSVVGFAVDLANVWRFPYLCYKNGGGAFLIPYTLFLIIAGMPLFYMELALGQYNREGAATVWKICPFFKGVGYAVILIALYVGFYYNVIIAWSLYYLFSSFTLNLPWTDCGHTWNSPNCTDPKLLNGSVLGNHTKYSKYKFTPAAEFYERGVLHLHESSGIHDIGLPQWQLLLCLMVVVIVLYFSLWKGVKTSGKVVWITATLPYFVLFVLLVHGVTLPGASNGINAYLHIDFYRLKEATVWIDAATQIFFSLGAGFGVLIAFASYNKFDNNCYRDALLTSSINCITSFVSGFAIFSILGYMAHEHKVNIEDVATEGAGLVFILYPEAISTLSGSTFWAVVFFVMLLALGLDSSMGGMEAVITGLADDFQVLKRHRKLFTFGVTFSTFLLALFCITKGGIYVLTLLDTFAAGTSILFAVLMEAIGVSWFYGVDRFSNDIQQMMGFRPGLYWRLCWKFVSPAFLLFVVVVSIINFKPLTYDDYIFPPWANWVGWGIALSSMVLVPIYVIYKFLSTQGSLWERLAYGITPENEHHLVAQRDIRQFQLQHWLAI
In another data set the target is T1, OCT1 (Homo sapiens, UniProt O15245).
T1 sequence (O15245 1-554): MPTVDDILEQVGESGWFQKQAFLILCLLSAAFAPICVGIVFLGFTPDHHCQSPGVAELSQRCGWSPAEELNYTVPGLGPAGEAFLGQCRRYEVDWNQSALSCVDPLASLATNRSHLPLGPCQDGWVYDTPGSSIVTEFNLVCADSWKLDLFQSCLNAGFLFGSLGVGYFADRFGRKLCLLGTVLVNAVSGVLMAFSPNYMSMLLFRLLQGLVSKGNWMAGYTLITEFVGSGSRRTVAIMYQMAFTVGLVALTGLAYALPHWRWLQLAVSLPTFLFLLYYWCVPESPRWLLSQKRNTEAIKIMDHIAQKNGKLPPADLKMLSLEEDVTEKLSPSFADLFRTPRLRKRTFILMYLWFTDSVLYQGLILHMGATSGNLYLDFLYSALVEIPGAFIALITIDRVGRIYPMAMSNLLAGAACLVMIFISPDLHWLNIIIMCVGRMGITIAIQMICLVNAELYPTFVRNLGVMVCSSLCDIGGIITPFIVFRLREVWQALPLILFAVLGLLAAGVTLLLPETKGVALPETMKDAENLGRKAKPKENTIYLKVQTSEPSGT
The data set is described as follows: Uptake into HEK293 cells overexpressing OCT1 (uptake ratio and concentration-dependent uptake). To be noted: intrinsic clearance, quotient of vmax and Km.

In the next data set the target is T2, OCT3 (Homo sapiens, UniProt O75751).
T2 sequence (O75751 1-556): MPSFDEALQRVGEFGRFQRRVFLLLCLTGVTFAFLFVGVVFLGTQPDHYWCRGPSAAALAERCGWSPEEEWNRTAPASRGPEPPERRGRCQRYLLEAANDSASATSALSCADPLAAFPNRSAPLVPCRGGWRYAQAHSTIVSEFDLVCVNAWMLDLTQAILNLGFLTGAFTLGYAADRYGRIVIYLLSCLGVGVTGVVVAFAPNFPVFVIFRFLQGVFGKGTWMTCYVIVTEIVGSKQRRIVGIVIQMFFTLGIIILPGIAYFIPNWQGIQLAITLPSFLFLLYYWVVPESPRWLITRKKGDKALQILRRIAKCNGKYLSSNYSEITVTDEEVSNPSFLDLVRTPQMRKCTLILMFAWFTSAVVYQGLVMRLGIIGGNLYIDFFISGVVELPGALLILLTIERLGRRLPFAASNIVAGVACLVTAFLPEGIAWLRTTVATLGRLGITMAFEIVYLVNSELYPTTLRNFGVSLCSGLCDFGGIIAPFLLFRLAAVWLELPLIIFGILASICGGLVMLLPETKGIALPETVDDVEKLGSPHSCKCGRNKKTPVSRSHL
Kind of data set: Uptake into HEK293 cells overexpressing OCT3 (uptake ratio and concentration-dependent uptake). The following applies: intrinsic clearance, quotient of vmax and Km.

A further data set concerns the target T3, OCT2 (Homo sapiens, UniProt O15244).
T3 sequence (O15244 1-555): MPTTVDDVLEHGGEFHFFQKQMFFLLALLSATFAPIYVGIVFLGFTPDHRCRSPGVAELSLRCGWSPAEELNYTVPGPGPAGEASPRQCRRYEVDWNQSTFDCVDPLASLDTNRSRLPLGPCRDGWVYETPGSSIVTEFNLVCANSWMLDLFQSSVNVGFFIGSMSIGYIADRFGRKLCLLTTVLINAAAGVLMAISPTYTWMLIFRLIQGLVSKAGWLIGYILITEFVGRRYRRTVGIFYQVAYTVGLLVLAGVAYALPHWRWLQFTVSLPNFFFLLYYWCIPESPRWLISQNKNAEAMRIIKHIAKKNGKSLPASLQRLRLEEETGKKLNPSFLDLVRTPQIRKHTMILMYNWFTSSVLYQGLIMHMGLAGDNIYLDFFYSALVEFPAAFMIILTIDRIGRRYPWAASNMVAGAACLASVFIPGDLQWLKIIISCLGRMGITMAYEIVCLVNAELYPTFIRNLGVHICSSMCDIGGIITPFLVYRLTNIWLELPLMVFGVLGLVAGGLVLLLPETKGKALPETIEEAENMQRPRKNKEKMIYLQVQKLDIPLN
The data set is described as follows: Uptake into HEK293 cells overexpressing OCT2 (uptake ratio and concentration-dependent uptake). The following applies: for Clint ± SEM: intrinsic clearance, quotient of vmax and Km.

The subject of a further data set is N=C(N)NCc1cccc(I)c1. The data set is described as follows: cells, lysate or membranes. To be noted: other: SERT; concentration-dependent net uptake, Michaelis–Menten; pH 7.4.
A further data set has as its system NCCc1c[nH]c2ccccc12. Kind of data set: cells, lysate or membranes. The following applies: other: SERT; concentration-dependent net uptake, Michaelis–Menten; pH 7.4.
A further data set has as its system CNCCc1c[nH]c2ccc(O)cc12. Kind of data set: cells, lysate or membranes. To be noted: pH 7.4.
For data set [5], the system named is CN[C@@H]1CCc2[nH]c3ccc(C(N)=O)cc3c2C1. The data set is described as follows: cells, lysate or membranes. The following applies: other: SERT; concentration-dependent net uptake, Michaelis–Menten; pH 7.4.
Substrate in data set [6]: NCCc1ccc(O)c(O)c1
Kind of data set: cells, lysate or membranes. To be noted: other: DAT; concentration-dependent net uptake, Michaelis–Menten; pH 7.4.

Substrate in data set [7]: NCCc1c[nH]c2ccc(O)cc12
The data set is described as follows: cells, lysate or membranes. The following applies: other: DAT; concentration-dependent net uptake, Michaelis–Menten; pH 7.4.

Substrate in data set [8]: N=C(N)NCc1cccc(I)c1
The data set is described as follows: cells, lysate or membranes. To be noted: other: DAT; concentration-dependent net uptake, Michaelis–Menten; pH 7.4.

Substrate in data set [9]: NCCc1ccccc1
Kind of data set: cells, lysate or membranes. The following applies: other: DAT; concentration-dependent net uptake, Michaelis–Menten; pH 7.4.

Substrate in data set [10]: CNCCc1c[nH]c2ccc(O)cc12
The data set is described as follows: cells, lysate or membranes. The following applies: other: DAT; concentration-dependent net uptake, Michaelis–Menten; pH 7.4.

Where [11] appears, read: concentration-dependent net uptake, Michaelis–Menten.
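Throughout, for Uptake Ratio by Transporter SERT: incubation at 37 °C, intracellular compound quantified by HPLC-MS/MS after cell lysis, uptake normalized to total protein measured by bicinchoninic acid assay.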
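Throughout, for Uptake Ratio by Transporter SERT: ratio of uptake in SERT cells over empty-vector control cells.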

Regarding `NCCc1ccccc1` [Phenylethylamine], in the data set with NET [1], the “NET inhibition IC50” value was “low micromolar range”. The “Uptake Ratio by Transporter SERT” value at SERT was 1.71. Besides, the “Clint ± SEM” value on DAT [2] is listed as 2.1 mL × g Protein^−1 × min^−1; at NET [4], 3.4 mL × g Protein^−1 × min^−1. Moreover, the “DAT inhibition IC50” value with DAT [3] is “low micromolar range”.
In the case of `NCCc1c[nH]c2ccc(O)cc12` [Serotonin], the “Clint ± SEM” value was 21.91 mL × g Protein^−1 × min^−1 at OCT1; 1.17 mL × g Protein^−1 × min^−1 on OCT3; 46.04 mL × g Protein^−1 × min^−1 at OCT2; 256.9 mL × g Protein^−1 × min^−1 on SERT; 77.39 mL × g Protein^−1 × min^−1 at DAT [2]; 18.83 mL × g Protein^−1 × min^−1 on NET [4]. At OCT2 (setting [11]), the “Vmax ± SEM” value was 31,565 pmol × mg Protein^−1 × min^−1.
Regarding `NC(N)=NCc1cccc(I)c1` [mIBG, meta-iodobenzylguanidine, reference compound], the “Clint ± SEM” value on OCT1 is recorded as 138 ± 38.5 mL × g Protein^−1 × min^−1; on OCT3, 161 ± 35.7 mL × g Protein^−1 × min^−1; on OCT2 it was 152 ± 34.1 mL × g Protein^−1 × min^−1; on SERT it was 38.2 ± 25.9 mL × g Protein^−1 × min^−1; on DAT [2], 229 ± 33.8 mL × g Protein^−1 × min^−1; on NET [4], 284 mL × g Protein^−1 × min^−1. The “Clint ± SEM” value on NET [4] (listed as meta-iodobenzylguanidine) is 284.6 ± 84.2 mL × g Protein^−1 × min^−1. Also, the “Vmax ± SEM” value at DAT [2] (setting [11]) was 2800 pmol × mg Protein^−1 × min^−1.
Consider SERT (Homo sapiens), for which the Km in the data set with N=C(N)NCc1cccc(I)c1 was 11.2 ± 6.2 µM; with NCCc1c[nH]c2ccccc12, 29.0 µM; in the data set with CNCCc1c[nH]c2ccc(O)cc12, 4.065 ± 1.829 µM; in data set [5], 26.51 µM. Further, the Vmax in the data set with N=C(N)NCc1cccc(I)c1 was 0.000429 µmol/min/mg; in the data set with NCCc1c[nH]c2ccccc12, 634.6 pmol × mg Protein^−1 × min^−1; in the data set with CNCCc1c[nH]c2ccc(O)cc12, 1373.0 pmol × mg Protein^−1 × min^−1; in data set [5], 1020 pmol × mg Protein^−1 × min^−1. In addition, the Vmax/Km in the data set with N=C(N)NCc1cccc(I)c1 is 38.2 µL/min/mg.

B1: DAT (Homo sapiens) (protein)
chain: MSKSKCSVGLMSSVVAPAKEPNAVGPKEVELILVKEQNGVQLTSSTLTNPRQSPVEAQDRETWGKKIDFLLSVIGFAVDLANVWRFPYLCYKNGGGAFLVPYLLFMVIAGMPLFYMELALGQFNREGAAGVWKICPILKGVGFTVILISLYVGFFYNVIIAWALHYLFSSFTTELPWIHCNNSWNSPNCSDAHPGDSSGDSSGLNDTFGTTPAAEYFERGVLHLHQSHGIDDLGPPRWQLTACLVLVIVLLYFSLWKGVKTSGKVVWITATMPYVVLTALLLRGVTLPGAIDGIRAYLSVDFYRLCEASVWIDAATQVCFSLGVGFGVLIAFSSYNKFTNNCYRDAIVTTSINSLTSFSSGFVVFSFLGYMAQKHSVPIGDVAKDGPGLIFIIYPEAIATLPLSSAWAVVFFIMLLTLGIDSAMGGMESVITGLIDEFQLLHRHRELFTLFIVLATFLLSLFCVTNGGIYVFTLLDHFAAGTSILFGVLIEAIGVAWFYGVGQFSDDIQQMTGQRPSLYWRLCWKLVSPCFLLFVVVVSIVTFRPPHYGAYIFPDWANALGWVIATSSMAMVPIYAAYKFCSLPGSFREKLAYAIAPEKDRELVDRGEVRQFTLRHWLKV
With B1, the Km came out at 25.1 µM in data set [6]; 50.50 µM in data set [7]; 12.2 ± 1.46 µM in data set [8]; 156 µM in [9]; 43.82 ± 14.39 µM in data set [10]. The maximal velocity (Vmax) was 1977 pmol × mg Protein^−1 × min^−1 in data set [6]; 3908 pmol × mg Protein^−1 × min^−1 in data set [7]; 0.0028 µmol/min/mg in [8]; 325 pmol × mg Protein^−1 × min^−1 in data set [9]; 3560 pmol × mg Protein^−1 × min^−1 in data set [10]. For the same molecule, the Vmax/Km in data set [8] came to 229 µL/min/mg.

Values taken from article PMC8657982, “Overlap and Specificity in the Substrate Spectra of Human Monoamine Transporters and Organic Cation Transporters 1, 2, and 3” (International Journal of Molecular Sciences, 2021).
